Results taken from a melting point compilation (Tetko et al.; mined from patent text by program, amines drawn as free bases though some values may be those of a salt).
Non-standard residues stand in square brackets, D forms with d. Residues, ends and D or L forms follow the SMILES beside them. *: point of attachment. Tic = O=C(O)[C@@H]1Cc2ccccc2CN1; Abu = CC[C@H](N)C(=O)O; NHBu = CCCCN*

First: COc1cc(-c2ccc(O)c(C3(C)CCCCC3)c2)cc(CC2SC(N(C)C)=NC2=O)c1OC (stereo not drawn)
Second: CNC1=CC(=O)C(Nc2ncnc3cc(OC)c(OC)cc23)=CC1=O
The melting point of the first is lower: 187 to 188 °C for the first, 283 to 285 °C for the second.

First: NCCNC(=O)CC(CO)c1c(Cl)cccc1Cl (stereo not drawn)
Second: CC(C)(C)OC(=O)CC(C#N)c1ccc(Cl)c(Cl)c1 (stereo not drawn)
The melting point of the first is higher: 127 to 129 °C for the first, 67 °C for the second.

First: COc1ccc(N)c(-c2ccc3cc(OC)c(OC)cc3c2)c1
Second: Cc1c(C)c2c(c(C)c1N)C(O)(c1ccc3ccccc3c1)C(C)(C)O2 (stereo not drawn)
The melting point of the first is higher: 158 to 160 °C for the first, 121 to 122 °C for the second.

First: CCN1c2ncc(CCc3cccc(I)c3)cc2C(=O)N(C)c2ccc(Cl)nc21
Second: CCOCCn1cc2c(C3C(=O)Nc4ccc(Cl)cc43)nc(NCCc3cccnc3)nc2n1 (stereo not drawn)
The melting point of the first is lower: 143 to 145 °C for the first, 224 to 226 °C for the second.

First: CCOC(=O)c1cc2c(nc1COc1ccc(C=O)cc1)CCCCC2
Second: CCOC(=O)c1ccc(NCCc2ccc(OCc3ccccc3)cc2)cc1
The melting point of the first is lower: 83 to 84 °C for the first, 94 to 97 °C for the second.

First: Cc1nc(C(O)(c2nc(C)c(C)s2)C(C)C)sc1C
Second: Cc1sc(S(=O)(=O)NC(C)(C)CO)cc1NC(=O)c1cnn2c(C(F)F)cc(-c3ccc(C(F)(F)F)cc3)nc12
The melting point of the first is lower: 169 to 171 °C for the first, 180 °C for the second.

`N[C@@H](CSCCC1CCN(C(=O)OCc2ccccc2)CC1)C(=O)O` and `CC(=O)N1CCC(c2nc(N)nc3ccccc23)CC1` cannot be ordered by melting point: 185 to 188 °C for the first, 184 to 186 °C for the second.

First: COC(=O)N[C@@H](CSc1ccccc1)[C@H](O)CCl
Second: O=C(Nc1nccc2ccc(CO)cc12)c1ccccc1
The melting point of the first is lower: 113 to 114 °C for the first, 190 to 193 °C for the second.

First: CC1=C(C)c2cc(Br)ccc2Sc2ccccc21
Second: CCC1c2ccccc2-c2sc(Br)cc2N1S(=O)(=O)c1ccc(O)cc1 (stereo not drawn)
The melting point of the first is lower: 108 to 111 °C for the first, 183 to 185 °C for the second.

First: COC(=O)c1nc2cccc(Cl)c2c(O)c1C(=O)OC
Second: CCCCOc1ccc2nc(C(C)=O)c(O)cc2c1
The melting point of the first is higher: 174 to 176 °C for the first, 71 to 73 °C for the second.

First: Cc1cccc(C#N)c1[N+](=O)[O-]
Second: O=c1ccn(-c2ccc([N+](=O)[O-])cc2)c(=O)[nH]1
The melting point of the first is lower: 74.5 to 77 °C for the first, greater than 300 °C for the second.

First: CCOC(=O)NNC(=O)Cc1c(C)cc(C)cc1C
Second: CCOC(=O)CCc1ccc(C2COc3c(C)c(C)c(NC(=O)CC(C)(C)C)c(C)c32)cc1 (stereo not drawn)
The melting point of the first is higher: 184 to 186 °C for the first, 103 to 105 °C for the second.

Compared with `CC(=O)OC1CSC(Oc2cncc(-c3c(F)cc(F)cc3F)c2)C(OC(C)=O)C1OC(C)=O` (stereo not drawn), `COc1cc(OC)nc(Oc2ccc(N)nc2C(=O)ON=C(C)C)n1` is higher in melting point: 143 °C for the first, 210 to 214 °C for the second.

First: O=C(O)CCC(=O)NC1CCCCC1
Second: O=C(O)CCC(=O)c1ccc(N2CCC3(CC2)OCCO3)cc1
The melting point of the first is higher: 168 to 170 °C for the first, 130 to 131 °C for the second.

First: O=C(O)c1cccc(C(c2cc(F)ccc2F)S(=O)(=O)c2ccc(Cl)cc2)n1 (stereo not drawn)
Second: COc1ccccc1C(Cn1ccnc1)S(=O)(=O)c1ccc(C(=O)O)cc1 (stereo not drawn)
The melting point of the first is higher: 200 to 201 °C for the first, 134 to 138 °C for the second.

`CC(=O)NC[C@H]1CN(c2ccc(N3CCC(n4nnnc4CS(C)(=O)=O)CC3)c(F)c2)C(=O)O1` and `CC(=S)NC[C@H]1CN(c2ccc3c(c2)CCCc2cnoc2-3)C(=O)O1` cannot be ordered by melting point: 192 °C for the first, 185 to 195 °C for the second.

First: O=Cn1cc(Cl)c(-c2cccc(Cl)c2Cl)c1
Second: Cn1c(-c2ccccc2Cl)cc2ncccc2c1=O
The melting point of the first is lower: 130 to 131 °C for the first, 152 to 153 °C for the second.

First: COc1ccc(NC(=S)C(N)=O)cc1OC
Second: COc1ccc(F)c(C(=O)O)c1
The melting point of the first is higher: 149 to 151 °C for the first, 144 to 146 °C for the second.

First: Cc1ccc(-c2nccc3c(CC(=O)O)cccc23)cc1
Second: CC(C)(O)C1(c2onc(-c3ccc(O)cc3)c2-c2ccccc2)CC1
The melting point of the first is higher: 223 to 224 °C for the first, 212 to 213 °C for the second.

Compared with `Nc1c(Cl)cc(C(O)CNCCCCCOCCc2ccccc2)cc1C(F)(F)F` (stereo not drawn), `COc1ccc(C(=O)Nc2cc(C(F)(F)F)c(Br)cc2S(N)(=O)=O)cc1` is higher in melting point: 70 to 71.5 °C for the first, 321 °C for the second.

First: CCCNON=C(C)C1=CCCN(C)C1
Second: CCCCNC(=O)[C@@H]1Cc2ccccc2CN1C(=O)[C@@H](N)CC (H-[Abu]-[Tic]-NHBu)
The melting point of the first is lower: 78 to 79 °C for the first, 105 to 110 °C for the second.

First: CC(C)c1nc2c(nc1C(C)C)-c1c(c(-c3ccc(C(=O)O)cc3)nn1Cc1cccnc1)CC2
Second: CCCCn1nc(C(C)C)c(C(=O)O)c1Cc1ccc(-c2ccccc2-c2nnn[nH]2)cc1
The melting point of the first is higher: 204 to 206 °C for the first, 103 to 108 °C for the second.

Compared with `Fc1ccc(-c2[nH]cc(C3CCN4CCCC4C3)c2-c2ccncc2)cc1` (stereo not drawn), `CN(C)CCNC(=O)Cc1ccc2ccn(C3CCN(CCc4ccc(F)cc4)CC3)c2c1` is lower in melting point: 263 to 265 °C for the first, 112 to 113 °C for the second.

First: CC(C#CC1CC(Oc2ccc(F)cc2Cl)C1)N(O)C(N)=O (single isomer, unassigned; (+))
Second: CCOC(=O)c1nc2c(=O)[nH]c3cc(F)ccc3n2c1C
The melting point of the first is lower: 160 °C for the first, greater than 250 °C for the second.

First: Cc1nc2c(cc1C(=O)NC(=N)N)CCCCC2CS(=O)(=O)O (stereo not drawn)
Second: CS(=O)(=O)Nc1ccccc1SC1CCCCC1
The melting point of the first is higher: 245 to 247 °C for the first, 50 to 51 °C for the second.

First: CCCCNS(=O)(=O)CCCCn1c(COCC)nc2c(N)nc3ccccc3c21
Second: CCCCC(=O)OCCOCn1cnc2c(=O)[nH]c(N)nc21
The melting point of the first is lower: 148 to 149 °C for the first, 215 to 217 °C for the second.

First: CCOC(=O)c1cccc(Oc2ncccc2OCCCc2ccncc2O)c1
Second: CCOC(=O)c1cnn(C)c1C(=O)Nc1ccc2nc(-c3cccnc3)nn2c1
The melting point of the first is lower: 76 to 79 °C for the first, 217 °C for the second.

Compared with `Cc1c(SCCCSCC2CN(C)C(=O)O2)ccnc1CNc1cnc2ccccc2c1` (stereo not drawn), `Cc1c(CC2=C(O)CCC2=O)ccc2ccccc12` is higher in melting point: 98 to 100 °C for the first, 226 to 228 °C for the second.

First: Cc1ccccc1OCC1COC(Cn2ccnc2)(c2ccc(Cl)cc2Cl)O1 (stereo not drawn)
Second: CCN(CC)c1ccc(C2(c3ccc(N(CC)CC)cc3N(CC)CC)OC(=O)c3ccccc32)c(Cl)c1 (stereo not drawn)
The melting point of the first is lower: 138 °C for the first, 141 to 143 °C for the second.

First: Cc1oc(-c2ccccc2)nc1CCOc1ccc(CCC2SC(=O)NC2=O)cc1 (stereo not drawn)
Second: COC(=O)C(Cc1cccc(OCC(=O)O)c1)c1nc(-c2ccccc2)c(-c2ccccc2)o1 (stereo not drawn)
The melting point of the first is higher: 151 to 152 °C for the first, 122 to 127 °C for the second.

First: COC(=O)C(C)(C)Oc1ccc2c(=O)n(CC(C)C)c(CNC(=O)OC(C)(C)C)c(-c3ccccc3)c2c1
Second: COc1ccccc1-c1ccc(OCC(=O)Nc2cscc2C(=O)O)nc1
The melting point of the first is higher: 207 to 209 °C for the first, 194 to 197 °C for the second.

First: CCCCOc1nc2cccc(C(=O)OC)c2n1Cc1ccccc1-c1ccccc1-c1nnn[nH]1
Second: CCn1nc(C2CC2)c(C(=O)O)c1Cc1ccc(-c2ccccc2-c2nnn[nH]2)cc1
The melting point of the first is lower: 146 to 148 °C for the first, 227 to 229 °C for the second.

First: N#Cc1ccc(C=O)c(-c2ccccc2)c1
Second: C=Cc1ccc(NN2C(=O)c3ccccc3C2=O)cc1
The melting point of the first is lower: 75 °C for the first, 174 to 176 °C for the second.

First: O=C1c2cc(Cl)ccc2-n2cncc2[C@@H]2CCCN12
Second: CN1C(=O)CC(C(=O)Nc2nccs2)C(=O)c2ccc(Cl)cc21 (stereo not drawn)
The melting point of the first is lower: 216 to 217 °C for the first, 238 to 240 °C for the second.

Compared with `Cn1ncnc1COc1nn2c(-c3ccccc3F)nncc2c1-c1c(F)cccc1F`, `CC(c1cccnc1)C(O)(Cn1cncn1)c1ccc(F)cc1F` (stereo not drawn) is lower in melting point: 196 °C for the first, 113 to 114 °C for the second.

First: CCCCCCCCCCCCCCCCNC(=O)CCCO
Second: COC(=O)CC(=O)c1cc(CN2CCOCC2)sc1Cl
The melting point of the first is higher: 89.5 to 90 °C for the first, 67 to 68 °C for the second.

Compared with `COc1ccc(-c2cnn3cnnc3n2)cc1`, `CCOc1ccc(-c2c(Cl)ncn2-c2ccc(S(=O)(=O)NC(C)(C)C)cc2)cc1` is lower in melting point: 282 to 284 °C for the first, 189 °C for the second.

First: CC(C)(C)C(=O)OC1CCC2C3(O)C=CC4=CC(=O)CCC4(CO)C3CCC12C (stereo not drawn)
Second: Nc1c(F)c(N2CCC(=NO)CC2)c(F)c2c1c(=O)c(C(=O)O)cn2C1CC1
The melting point of the first is lower: 201 to 203 °C for the first, 298 to 300 °C for the second.

First: OCC1OC(n2cnc3c(Cl)ncc(F)c32)C(O)C1O (stereo not drawn)
Second: Cc1cccc2c1NC(C)c1nnnn1-2 (stereo not drawn)
The melting point of the first is higher: 187 to 189 °C for the first, 159 to 161 °C for the second.

First: CCc1nc2c(cnn2CC)c(NC2CCOCC2)c1CNC(=O)c1cccc(C(=O)NCc2ccc(C)c(-c3cccc(CN4CC5CC4CN5)c3)c2)c1 (stereo not drawn)
Second: NC(=O)c1nc(-c2cccc(O)c2)nc2c1[nH]c(=O)n2C1CCOCC1
The melting point of the first is lower: 138 to 140 °C for the first, 361 to 363 °C for the second.

First: Cc1cc(N(C)CCO)cc(C)n1
Second: CC(C)(C)c1cc(CBr)ccc1O[Si](C)(C)C(C)(C)C
The melting point of the first is higher: 139 to 144 °C for the first, 54 to 55 °C for the second.

First: N#Cc1cc(-n2c3ccccc3[nH]c(=N)[nH]c3ccccc32)ccc1Cl
Second: O=C(Nc1nccs1)c1nc(-c2cccc3ccccc23)[nH]c1-c1ccc(Cl)cc1
The melting point of the first is higher: 225 to 228 °C for the first, 206 to 208 °C for the second.

First: CC1(c2ccc(S(N)(=O)=O)cc2)Cc2cc(OCC(=O)O)c(Cl)c(Cl)c2C1=O (stereo not drawn)
Second: CC(=O)SCC(=O)c1ccc(Cl)c(S(N)(=O)=O)c1
The melting point of the first is higher: 258 to 260 °C for the first, 137 °C for the second.

First: C#CCn1c2c(c3ccccc31)CCCC2
Second: c1cnc2ccc(Cn3nnc4ccc(-c5ccc(N6CCCCC6)nc5)nc43)cc2c1
The melting point of the first is lower: 74 to 76 °C for the first, 133 to 135 °C for the second.

First: Cc1nc2ccc(C(=O)NS(=O)(=O)c3ccccc3)nc2n1Cc1ccc(COc2ccccc2)cc1Cl
Second: Cc1cc(C)c(Nc2nc(C)ccc2S(=O)(=O)c2ccc(OCc3csc(C)n3)cc2)c(C)c1
The melting point of the first is higher: 203 to 205 °C for the first, 200 to 201 °C for the second.

First: Cc1nc(Nc2ccccc2)sc1C(=O)c1ccc(Cl)c([N+](=O)[O-])c1
Second: Cc1noc(NS(=O)(=O)c2ccc(Nc3ccc(N)cc3N)cc2)c1C
The melting point of the first is lower: 162 to 165 °C for the first, 181 to 183 °C for the second.

Compared with `COC(CN(C)c1nccc(Oc2ccc(NC(=O)c3cc(F)cc(N4CCOCC4)c3)c3ccccc23)n1)OC`, `O=C(C=Cc1ccc(Br)cc1)N1CCc2c([nH]c3ccccc23)C1c1ccc2c(c1)OCO2` (stereo not drawn) is higher in melting point: 92 to 94 °C for the first, 188 to 190 °C for the second.

Compared with `CC(CC(=O)NC(Cc1c[nH]c2ccccc12)C(=O)CCc1cc(C(F)(F)F)cc(C(F)(F)F)c1)c1ccccc1` (stereo not drawn), `CCCOC(=O)C(Br)=CC1C(C(=O)OC(C#N)c2cccc(Oc3ccccc3)c2)C1(C)C` (stereo not drawn) is lower in melting point: 133 to 137 °C for the first, 64 °C for the second.

Compared with `CC(C)(C)C(=O)Nc1cccc(C(F)(F)F)c1`, `CC(=O)SCC(C(=O)O)C(C)c1ccc(O)cc1` (stereo not drawn) is lower in melting point: 107 °C for the first, 48 °C for the second.
